Results as given in US9044389B2, “Isoxazoline derivatives as pesticides” (Novartis AG, priority 2008, dated 2015).

Test system: Rhipicephalus sanguineus nymphs
Assay: Activity in vivo against Rhipicephalus sanguineus nymphs on Mongolian gerbils (spray application)
Conditions: tick number reduction vs placebo, Abbot's formula
Method: On day 0, gerbils are treated with the test compound at a given dose by spray application. On day +1 (+2), the animals are infested with nymphs of R. sanguineus. Ticks are left on the animals until full repletion. Seven days after infestation nymphs dropped off fully engorged are collected and counted. Efficacy in killing is expressed as a tick number reduction in comparison with a placebo treated group, using the Abbot's formula.

## Cc1cc(C2=NOC(c3cc(Cl)cc(Cl)c3)(C(F)(F)F)C2)sc1C(=O)NCC(F)(F)F (centres unmarked) [Compound 1.8, 5-[5-(3,5-dichloro-phenyl)-5-trifluoromethyl-4,5-dihydro-isoxazol-3-yl]-3-methyl-thiophene-2-carboxylic acid (2,2,2-trifluoro-ethyl)-amide]
Dose 32 mg/kg
  Efficacy in killing %: 80%

## O=C(NCC(F)(F)F)c1sc(C2=NOC(c3cc(Cl)cc(Cl)c3)(C(F)(F)F)C2)cc1-c1ccccc1 (centres unmarked) [Compound 1.21]
Dose 32 mg/kg
  Efficacy in killing %: 98%

## Cc1cc(C2=NOC(c3cc(Cl)cc(Cl)c3)(C(F)(F)F)C2)sc1C(=O)NCC(=O)NCC(F)(F)F (centres unmarked) [Compound 1.28, 5-[5-(3,5-dichloro-phenyl)-5-trifluoromethyl-4,5-dihydro-isoxazol-3-yl]-3-methyl-thiophene-2-carboxylic acid [(2,2,2-trifluoro-ethylcarbamoyl)-methyl]-amide]
Dose 10 mg/kg
  Efficacy in killing %: 96%

## Cc1cc(C2=NOC(c3cc(Cl)cc(Cl)c3)(C(F)(F)F)C2)sc1C(=O)NCC1CCCO1 (centres unmarked) [Compound 1.29]
Dose 100 mg/kg
  Efficacy in killing %: 92%

## Cc1cc(C2=NOC(c3cc(Cl)cc(Cl)c3)(C(F)(F)F)C2)sc1C(=O)Nc1nc(C(F)(F)F)cs1 (centres unmarked) [Compound 1.31]
Dose 32 mg/kg
  Efficacy in killing %: 100%

## Cc1cc(C2=NOC(c3cc(Cl)cc(Cl)c3)(C(F)(F)F)C2)sc1C(=O)NCc1ccncc1 (centres unmarked) [Compound 1.32]
Dose 100 mg/kg
  Efficacy in killing %: 84%

## Cc1cc(C2=NOC(c3cc(Cl)cc(Cl)c3)(C(F)(F)F)C2)sc1C(=O)Nc1cccnc1 (centres unmarked) [Compound 1.35]
Dose 10 mg/kg
  Efficacy in killing %: 82%

## C#CCNC(=O)CNC(=O)c1sc(C2=NOC(c3cc(Cl)cc(Cl)c3)(C(F)(F)F)C2)cc1C (centres unmarked) [Compound 1.48]
Dose 10 mg/kg
  Efficacy in killing %: 95%

## Cc1cc(C2=NOC(c3cc(Cl)cc(Cl)c3)(C(F)(F)F)C2)sc1C(=O)NCC(=O)NCC#N (centres unmarked) [Compound 1.49]
Dose 3.2 mg/kg
  Efficacy in killing %: 85%

## Cc1cc(C2=NOC(c3cc(Cl)c(Cl)c(Cl)c3)(C(F)(F)F)C2)sc1C(=O)NCC(=O)NCC(F)(F)F (centres unmarked) [Compound 2.4]
Dose 10 mg/kg
  Efficacy in killing %: 90%

## Cc1cc(C2=NOC(c3cc(Cl)c(F)c(Cl)c3)(C(F)(F)F)C2)sc1C(=O)NCC(=O)NCC(F)(F)F (centres unmarked) [Compound 2.5]
Dose 10 mg/kg
  Efficacy in killing %: 90%
